Measurements reported in US9062041B2 (Bayer Intellectual Property GmbH, priority 2011, dated 2015).

Tests used:
Assay type in all cases: cell-based
[1] = biological target: EP2 subtype of the human PGE2 receptor (Homo sapiens, UniProt P43116); test: cAMP antagonism test on the human EP2 receptor (HTRF cAMP detection); settings: hEP2 receptor, read-out: Antagonism hEP2 IC50
Procedure, shortened: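 Cells expressing human EP2 preincubated 20 min at RT with compound (0.8 nM–16.5 μM), then stimulated 60 min with PGE2 (3× solution 1.5 nM) in PBS-IBMX. After 20 min lysis, cAMP measured by competitive HTRF with cAMP-d2 and Eu cryptate anti-cAMP antibody (665/620 nm ratio).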

human PGD receptor = biological target: T1, human PGD receptor (Homo sapiens, UniProt Q13258); test: cAMP antagonism test on the human prostaglandin D receptor (HTRF cAMP detection); settings: selectivity towards hDP, IC50 measured by cAMP antagonism test
T1 sequence (Q13258 1-359): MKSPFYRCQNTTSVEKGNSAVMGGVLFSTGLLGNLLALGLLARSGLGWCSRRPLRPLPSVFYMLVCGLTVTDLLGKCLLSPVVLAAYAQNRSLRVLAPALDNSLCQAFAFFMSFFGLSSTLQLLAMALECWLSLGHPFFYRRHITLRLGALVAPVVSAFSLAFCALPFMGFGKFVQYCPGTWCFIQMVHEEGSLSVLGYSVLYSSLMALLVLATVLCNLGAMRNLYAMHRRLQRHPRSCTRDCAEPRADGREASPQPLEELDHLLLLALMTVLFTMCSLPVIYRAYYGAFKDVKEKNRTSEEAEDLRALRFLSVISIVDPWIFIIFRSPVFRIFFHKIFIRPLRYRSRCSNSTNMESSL
Procedure, shortened: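 Cells pre-mixed with cAMP-d2 were preincubated with compound (0.8 nM–16.5 μM) for 20 min at RT, then stimulated with 3× PGD2 solution (6 nM, in PBS-IBMX) for 30 min at RT. After lysis (20 min), HTRF read at 665/620 nm; antagonism seen as rise in FRET ratio.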

[2] = biological target: EP4 subtype of the human PGE2 receptor (Homo sapiens, UniProt P35408); test: cAMP antagonism test on the human EP4 receptor (HTRF cAMP detection); settings: selectivity towards hEP4, IC50 measured by cAMP antagonism test
Procedure, shortened: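 Cells expressing human EP4 preincubated 20 min at RT with compound (0.8 nM–16.5 μM), then stimulated with PGE2 (0.3 nM in 3× solution, with IBMX) 60 min at RT. After lysis, cAMP measured by HTRF competition (665/620 nm ratio); antagonism seen as rise in FRET signal.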

EP4 subtype of the human PGE2 receptor, sequence (P35408 whole entry): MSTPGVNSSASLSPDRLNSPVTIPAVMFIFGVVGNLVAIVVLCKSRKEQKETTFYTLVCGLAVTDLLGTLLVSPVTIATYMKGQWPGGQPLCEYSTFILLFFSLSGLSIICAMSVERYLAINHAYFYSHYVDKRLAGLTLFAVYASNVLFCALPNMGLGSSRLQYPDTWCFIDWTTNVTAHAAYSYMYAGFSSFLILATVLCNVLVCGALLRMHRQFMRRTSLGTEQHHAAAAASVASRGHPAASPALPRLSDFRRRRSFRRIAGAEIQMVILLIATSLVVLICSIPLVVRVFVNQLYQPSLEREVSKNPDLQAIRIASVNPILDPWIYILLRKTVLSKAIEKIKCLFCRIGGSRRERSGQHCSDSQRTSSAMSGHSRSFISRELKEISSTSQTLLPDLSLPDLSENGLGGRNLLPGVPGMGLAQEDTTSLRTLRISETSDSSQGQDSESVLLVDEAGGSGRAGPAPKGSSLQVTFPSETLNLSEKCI
EP2 subtype of the human PGE2 receptor, sequence (P43116 whole entry): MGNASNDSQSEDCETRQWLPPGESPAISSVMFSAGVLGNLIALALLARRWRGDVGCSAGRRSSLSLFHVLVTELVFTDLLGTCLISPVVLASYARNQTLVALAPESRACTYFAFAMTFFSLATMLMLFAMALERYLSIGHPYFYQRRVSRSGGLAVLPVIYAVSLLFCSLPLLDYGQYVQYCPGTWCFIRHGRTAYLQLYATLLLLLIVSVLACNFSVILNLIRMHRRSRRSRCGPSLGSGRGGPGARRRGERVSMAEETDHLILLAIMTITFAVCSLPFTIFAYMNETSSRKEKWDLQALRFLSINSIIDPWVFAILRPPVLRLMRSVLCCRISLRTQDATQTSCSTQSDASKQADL

IC50 [1] [nM] | Selectivity hEP2/hDP (human PGD receptor) | Selectivity hEP2/hEP4 [2] | SMILES
53.1 | xxx (xxx > 100) | xxx (xxx > 100) | COCCNC(=O)c1ccc2nn(CC3CCN(C(=O)c4ccc(Cl)c(C(F)(F)F)c4)CC3)cc2c1OC [Example 270, 2-({1-[4-chloro-3-(trifluoromethyl)benzoyl]piperidin-4-yl}methyl)-4-methoxy-N-(2-methoxyethyl)-2H-indazol-5-carboxamide]
33.5 | xxx (xxx > 100) | xxx (xxx > 100) | COCCNC(=O)c1ccc2nn(CC3CCN(C(=O)c4ccc(Cl)cc4F)CC3)cc2c1OC [Example 271, 2-{[1-(4-chloro-2-fluorobenzoyl)piperidin-4-yl]methyl}-4-methoxy-N-(2-methoxyethyl)-2H-indazol-5-carboxamide]
23.7 | xxx (xxx > 100) | xxx (xxx > 100) | COCCNC(=O)c1ccc2nn(CC3CCN(C(=O)c4ccc(OC(F)(F)F)c(F)c4)CC3)cc2c1OC [Example 272, 2-({1-[3-fluoro-4-(trifluoromethoxy)benzoyl]piperidin-4-yl}methyl)-4-methoxy-N-(2-methoxyethyl)-2H-indazol-5-carboxamide]
18.5 | xxx (xxx > 100) | xxx (xxx > 100) | COCCNC(=O)c1ccc2nn(CC3CCN(C(=O)c4cn(C)c5ccccc45)CC3)cc2c1OC [Example 273, 4-methoxy-N-(2-methoxyethyl)-2-({1-[(1-methyl-1H-indol-3-yl)carbonyl]-piperidin-4-yl}methyl)-2H-indazol-5-carboxamide]
44.6 | xxx (xxx > 100) | xxx (xxx > 100) | CCOc1c(C(=O)NCCOC)ccc2nn(CC3CCN(C(=O)c4ccc(Cl)cc4)CC3)cc12 [Example 274, 2-{[1-(4-chlorobenzoyl)piperidin-4-yl]methyl}-4-ethoxy-N-(2-methoxyethyl)-2H-indazol-5-carboxamide]
34.5 | xxx (xxx > 100) | xxx (xxx > 100) | CCOc1c(C(=O)NCCOC)ccc2nn(CC3CCN(C(=O)c4ccc(S(F)(F)(F)(F)F)cc4)CC3)cc12 [Example 275, 4-ethoxy-N-(2-methoxyethyl)-2-({1-[4-(pentafluoro-λ^6-sulphanyl)benzoyl]-piperidin-4-yl}methyl)-2H-indazol-5-carboxamide]
226 | xx (xx: 10-100) | xx (xx: 10-100) | CCOc1c(C(=O)NCCOC)ccc2nn(CC3CN(C(=O)c4ccc(Cl)cc4)C3)cc12 [Example 276, 2-{[1-(4-chlorobenzoyl)azetidin-3-yl]methyl}-4-ethoxy-N-(2-methoxyethyl)-2H-indazol-5-carboxamide]
47.9 | xxx (xxx > 100) | xxx (xxx > 100) | CCOc1c(C(=O)NCCOC)ccc2nn(CC3CN(C(=O)c4ccc(S(F)(F)(F)(F)F)cc4)C3)cc12 [Example 277, 4-ethoxy-N-(2-methoxyethyl)-2-({1-[4-(pentafluoro-λ^6-sulphanyl)benzoyl]-azetidin-3-yl}methyl)-2H-indazol-5-carboxamide]
104 | xxx (xxx > 100) | xxx (xxx > 100) | Cc1cc2nn(CC3CN(C(=O)c4ccc(Cl)cc4)C3)cc2cc1C(=O)NCCN1CCOCC1 [Example 278, 2-{[1-(4-chlorobenzoyl)azetidin-3-yl]methyl}-6-methyl-N-(2-morpholinoethyl)-2H-indazol-5-carboxamide]
57.4 | xxx (xxx > 100) | xxx (xxx > 100) | Cc1cc2nn(CC3CN(C(=O)c4ccc(OC(F)(F)F)cc4)C3)cc2cc1C(=O)NCCN1CCOCC1 [Example 279, 6-methyl-N-(2-morpholinoethyl)-2-({1-[4-(trifluoromethoxy)benzoyl]azetidin-3-yl}methyl)-2H-indazol-5-carboxamide]
30.7 | xxx (xxx > 100) | xxx (xxx > 100) | Cc1cc2nn(CC3CN(C(=O)c4ccc(S(F)(F)(F)(F)F)cc4)C3)cc2cc1C(=O)NCCN1CCOCC1 [Example 280, 6-methyl-N-(2-morpholinoethyl)-2-({1-[4-(pentafluoro-λ^6-sulphanyl)benzoyl]-azetidin-3-yl}methyl)-2H-indazol-5-carboxamide]
23 | xxx (xxx > 100) | xxx (xxx > 100) | COCCNC(=O)c1cc2cn(CC3CCN(C(=O)c4cn(C)c5ccccc45)CC3)nc2cc1C [Example 281, N-(2-methoxyethyl)-6-methyl-2-({1-[(1-methyl-1H-indol-3-yl)carbonyl]-piperidin-4-yl}methyl)-2H-indazol-5-carboxamide]
20.1 | xxx (xxx > 100) | xxx (xxx > 100) | COCCNC(=O)c1ccc2nn(CC3CN(C(=O)c4cn(C)c5ccccc45)C3)cc2c1C [Example 282, N-(2-methoxyethyl)-4-methyl-2-({1-[(1-methyl-1H-indol-3-yl)carbonyl]azetidin-3-yl}methyl)-2H-indazol-5-carboxamide]
56.4 | xxx (xxx > 100) | xxx (xxx > 100) | Cc1c(C(=O)NCC(F)(F)F)ccc2nn(CC3CCN(C(=O)c4ccc(Oc5ccc(Cl)cc5)cc4)CC3)cc12 [Example 284, 2-({1-[4-(4-chlorophenoxy)benzoyl]piperidin-4-yl}methyl)-4-methyl-N-(2,2,2-trifluoroethyl)-2H-indazol-5-carboxamide]
100 | xxx (xxx > 100) | xxx (xxx > 100) | Cc1ccc(Oc2ccc(C(=O)N3CCC(Cn4cc5c(C)c(C(=O)NCC(F)(F)F)ccc5n4)CC3)cc2)cc1 [Example 285, 4-methyl-2-({1-[4-(4-methylphenoxy)benzoyl]piperidin-4-yl}methyl)-N-(2,2,2-trifluoroethyl)-2H-indazol-5-carboxamide]
100 | xxx (xxx > 100) | xxx (xxx > 100) | Cc1c(C(=O)NCC(F)(F)F)ccc2nn(CC3CCN(C(=O)c4ccc(-c5ccc(F)cc5)cc4)CC3)cc12 [Example 286, 2-({1-[(4′-fluorobiphenyl-4-yl)carbonyl]piperidin-4-yl}methyl)-4-methyl-N-(2,2,2-trifluoroethyl)-2H-indazol-5-carboxamide]
1050 | xx (xx: 10-100) | xx (xx: 10-100) | Cc1c(C(=O)NCC(F)(F)F)ccc2nn(CC3CCN(C(=O)c4ccc(N5CCOCC5)cc4)CC3)cc12 [Example 287, 4-methyl-2-{[1-(4-morpholinobenzoyl)piperidin-4-yl]methyl}-N-(2,2,2-trifluoro-ethyl)-2H-indazol-5-carboxamide]
40 | xxx (xxx > 100) | xxx (xxx > 100) | Cc1c(C(=O)NCC(F)(F)F)ccc2nn(CC3CCN(C(=O)c4ccc(SC(F)(F)F)cc4)CC3)cc12 [Example 288, 4-methyl-N-(2,2,2-trifluoroethyl)-2-[(1-{4-[(trifluoromethyl)sulphanyl]benzoyl}-piperidin-4-yl)methyl]-2H-indazol-5-carboxamide]
51.6 | xxx (xxx > 100) | xxx (xxx > 100) | Cc1c(C(=O)NCC(F)(F)F)ccc2nn(CC3CCN(C(=O)c4cn(C)c5ccccc45)CC3)cc12 [Example 289, 4-methyl-2-({1-[(1-methyl-1H-indol-3-yl)carbonyl]piperidin-4-yl}methyl)-N-(2,2,2-trifluoroethyl)-2H-indazol-5-carboxamide]
42.6 | xxx (xxx > 100) | xxx (xxx > 100) | Cc1c(C(=O)NCC(F)(F)F)ccc2nn(CC3CCN(C(=O)c4cc5ccccc5n4C)CC3)cc12 [Example 290, 4-methyl-2-({1-[(1-methyl-1H-indol-2-yl)carbonyl]piperidin-4-yl}methyl)-N-(2,2,2-trifluoroethyl)-2H-indazol-5-carboxamide]
20 | xxx (xxx > 100) | xxx (xxx > 100) | Cc1c(C(=O)NCC(F)(F)F)ccc2nn(CC3CCN(C(=O)c4cc5cc(F)ccc5n4C)CC3)cc12 [Example 292, 2-({1-[(5-fluoro-1-methyl-1H-indol-2-yl)carbonyl]piperidin-4-yl}methyl)-4-methyl-N-(2,2,2-trifluoroethyl)-2H-indazol-5-carboxamide]
